Laboratory results as given in patent publication US12545652B2, “Crystalline forms of a TYK2 inhibitor” (Sareum Limited, priority 2020, dated 2026).

Tests used:
[1] = Compression stability test (10×10^4N force); format: physicochemical
Method: Compression stability tests were carried out on samples from two batches of crystalline Form A and samples from two batches of Crystalline Form B. One pair of samples of Form A and Form B was subjected to compression under 10×10^4N force for 23 and 23¾ hours respectively to assess the impact upon form fate and chemical stability.
The other pair of samples of Form A and Form B was subjected to similar compression pressures over an extended duration of 7 days to assess the impact of prolonged compression force upon form fate and chemical stability.

[2] = Rapidly cooled, reverse anti-solvent addition crystallisation at −10° C., observations and form fate by XRPD; format: physicochemical; conditions: for Observation: −10° C., 30 vol. anti-solvent; for Crystalline Form fate by XRPD: Reverse addition to anti-solvent at −10° C.
Method: Anti-solvent crystallisation was carried out by dissolving 2-(2,6-dichlorophenyl)-5-[4-(1,1-dioxo-1,4-thiazinane-4-carbonyl)anilino]oxazole-4-carboxamide in a solvent with heating, clarifying the solution and adding cold anti-solvent using the following method.
2-(2,6-dichlorophenyl)-5-[4-(1,1-dioxo-1,4-thiazinane-4-carbonyl)anilino]oxazole-4-carboxamide, 4×153-155 mg, was weighed into four crystallisation tubes and a different solvent (see Table 10) was charged into each. The mixtures were heated to 60° C. to achieve dissolution and then clarified.
Three anti-solvents (see Table 10), 1.5 ml, were each charged to four crystallisation tubes and cooled to −10° C.
The clarified solutions of 2-(2,6-dichlorophenyl)-5-[4-(1,1-dioxo-1,4-thiazinane-4-carbonyl)anilino]oxazole-4-carboxamide at 60° C. were charged to the cold anti-solvents in aliquots containing ca. 50 mg of the compound (into ca. 30 vol. anti-solvent) and immediate observations were noted.
The resulting mixtures were equilibrated at −10° C. for ca. 22 hours, observations were made and the solids were isolated. All isolated solids were dried in vacuo under air for ca. 20 minutes and then dried in vacuo at 45° C. for 23½ hours.

NC(=O)c1nc(-c2c(Cl)cccc2Cl)oc1Nc1ccc(C(=O)N2CCS(=O)(=O)CC2)cc1 [Form A, 2-(2,6-dichlorophenyl)-5-[4-(1,1-dioxo-1,4-thiazinane-4-carbonyl)anilino]oxazole-4-carboxamide]
HPLC assessment post-compression (chemical stability) ([1]; compression for 7 days): significant chemical degradation | XRPD examination of solids isolated post-compression (form fate) ([1]; compression for both ca. 1 and 7 days): diffraction pattern matching the input Form A but of reduced diffraction resolution | HPLC assessment post-compression (chemical stability) ([1]; compression for ca. 1 day (23 / 23¾ hours), 10×10^4N): no discernible chemical degradation | Observation ([2]; ID A1, THF/water, 4:1 10 vol., Heptane, 5 Hrs): Suspension | Observation ([2]; ID A1, THF/water, 4:1 10 vol., Heptane, 22 Hrs): Suspension | Observation ([2]; ID A1, THF/water, 4:1 10 vol., Heptane, Immediate): Gum | Observation ([2]; ID A2, THF/water, 4:1 10 vol., Benzotrifluoride, 5 Hrs): Suspension | Observation ([2]; ID A2, THF/water, 4:1 10 vol., Benzotrifluoride, 22 Hrs): Suspension | Observation ([2]; ID A2, THF/water, 4:1 10 vol., Benzotrifluoride, Immediate): Suspension | Observation ([2]; ID A3, THF/water, 4:1 10 vol., 2-Chlorobutane, 5 Hrs): Suspension | Observation ([2]; ID A3, THF/water, 4:1 10 vol., 2-Chlorobutane, 22 Hrs): Suspension | Observation ([2]; ID A3, THF/water, 4:1 10 vol., 2-Chlorobutane, Immediate): Suspension | Observation ([2]; ID B1, THF 25 vol., Heptane, 5 Hrs): Suspension | Observation ([2]; ID B1, THF 25 vol., Heptane, 22 Hrs): Suspension | Observation ([2]; ID B1, THF 25 vol., Heptane, Immediate): Suspension | Observation ([2]; ID B2, THF 25 vol., Benzotrifluoride, 5 Hrs): Suspension | Observation ([2]; ID B2, THF 25 vol., Benzotrifluoride, 22 Hrs): Suspension | Observation ([2]; ID B2, THF 25 vol., Benzotrifluoride, Immediate): Suspension | Observation ([2]; ID B3, THF 25 vol., 2-Chlorobutane, 5 Hrs): Suspension | Observation ([2]; ID B3, THF 25 vol., 2-Chlorobutane, 22 Hrs): Suspension | Observation ([2]; ID B3, THF 25 vol., 2-Chlorobutane, Immediate): Suspension | Observation ([2]; ID C1, Nitromethane 50 vol., Heptane, 5 Hrs): Bi. Susp. | Observation ([2]; ID C1, Nitromethane 50 vol., Heptane, 22 Hrs): Bi. Susp. | Observation ([2]; ID C1, Nitromethane 50 vol., Heptane, Immediate): Immiscible | Observation ([2]; ID C2, Nitromethane 50 vol., Benzotrifluoride, 5 Hrs): Solution | Observation ([2]; ID C2, Nitromethane 50 vol., Benzotrifluoride, 22 Hrs): Suspension | Observation ([2]; ID C2, Nitromethane 50 vol., Benzotrifluoride, Immediate): Solution | Observation ([2]; ID C3, Nitromethane 50 vol., 2-Chlorobutane, 5 Hrs): Solution | Observation ([2]; ID C3, Nitromethane 50 vol., 2-Chlorobutane, 22 Hrs): Haze | Observation ([2]; ID C3, Nitromethane 50 vol., 2-Chlorobutane, Immediate): Solution | Observation ([2]; ID D1, MeCN/water, 4:1 55 vol., Heptane, 5 Hrs): Bi. Susp. | Observation ([2]; ID D1, MeCN/water, 4:1 55 vol., Heptane, 22 Hrs): Bi. Susp. | Observation ([2]; ID D1, MeCN/water, 4:1 55 vol., Heptane, Immediate): Immiscible | Observation ([2]; ID D2, MeCN/water, 4:1 55 vol., Benzotrifluoride, 5 Hrs): Suspension | Observation ([2]; ID D2, MeCN/water, 4:1 55 vol., Benzotrifluoride, 22 Hrs): Suspension | Observation ([2]; ID D2, MeCN/water, 4:1 55 vol., Benzotrifluoride, Immediate): Haze | Observation ([2]; ID D3, MeCN/water, 4:1 55 vol., 2-Chlorobutane, 5 Hrs): Suspension | Observation ([2]; ID D3, MeCN/water, 4:1 55 vol., 2-Chlorobutane, 22 Hrs): Suspension | Observation ([2]; ID D3, MeCN/water, 4:1 55 vol., 2-Chlorobutane, Immediate): Haze | Crystalline Form fate by XRPD ([2]; MeCN/water, 4:1 55 vol., 2-Chlorobutane): Form B | Crystalline Form fate by XRPD ([2]; MeCN/water, 4:1 55 vol., Benzotrifluoride): Form B | Crystalline Form fate by XRPD ([2]; MeCN/water, 4:1 55 vol., Heptane): Form A | Crystalline Form fate by XRPD ([2]; Nitromethane 50 vol., 2-Chlorobutane): Form B/C mix | Crystalline Form fate by XRPD ([2]; Nitromethane 50 vol., Benzotrifluoride): Form C | Crystalline Form fate by XRPD ([2]; Nitromethane 50 vol., Heptane): Form C | Crystalline Form fate by XRPD ([2]; THF 25 vol., 2-Chlorobutane): Low cryst. Form C | Crystalline Form fate by XRPD ([2]; THF 25 vol., Benzotrifluoride): Low cryst. Form B | Crystalline Form fate by XRPD ([2]; THF 25 vol., Heptane): Low cryst. Form B + | Crystalline Form fate by XRPD ([2]; THF/water, 4:1 10 vol., 2-Chlorobutane): Low cryst. Form B | Crystalline Form fate by XRPD ([2]; THF/water, 4:1 10 vol., Benzotrifluoride): Low cryst. Form B | Crystalline Form fate by XRPD ([2]; THF/water, 4:1 10 vol., Heptane): Low cryst. Form B
